Reference: ChEMBL document CHEMBL1221193, “Deconstructing fragment-based inhibitor discovery” (Nat Chem Biol, 2006)
pKi: −log10 of the molar value.

These compounds were tested against Beta-lactamase (Escherichia coli K-12, UniProt P00811) (assay: Inhibition of Escherichia coli AmpC assessed as nitrocefin hydrolysis by UV-Vis spectrophotometry).
Sequence of Beta-lactamase (P00811 whole entry): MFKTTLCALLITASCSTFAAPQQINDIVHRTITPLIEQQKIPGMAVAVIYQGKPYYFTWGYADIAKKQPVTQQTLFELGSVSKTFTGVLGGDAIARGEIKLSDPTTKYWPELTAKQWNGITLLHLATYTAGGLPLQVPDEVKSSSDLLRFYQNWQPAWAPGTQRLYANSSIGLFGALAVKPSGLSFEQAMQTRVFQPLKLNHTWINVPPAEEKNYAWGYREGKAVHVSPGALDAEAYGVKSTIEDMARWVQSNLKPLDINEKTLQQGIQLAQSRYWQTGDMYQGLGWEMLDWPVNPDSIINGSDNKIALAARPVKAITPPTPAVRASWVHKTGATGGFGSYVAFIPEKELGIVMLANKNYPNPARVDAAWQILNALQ
Compound `O=C(O)c1ccc(NS(=O)(=O)c2ccsc2C(=O)O)c(O)c1` has a pKi of 6.00.
Work on `CS(=O)(=O)Nc1ccc(C(=O)O)cc1` yielded a pKi of 2.00.
For `O=C(O)c1cccs1` [THIOPHENE CARBOXYLIC ACID], the pKi was 1.40.
